# Data as given in patent US20250144067A1, “PERSONALIZED STARVATION THERAPY FOR CANCER” (Faeth Therapeutics, Inc., priority 2021, published 2025).
# Where two headings read alike, the source gives them in different places.
# Tests used:
# [1] = system: NCI-H292 lung cancer cells; experiment: FDA drug screening, complete media vs cholesterol-free media with simvastatin (TABLE 2); format: cell-based, human
# [2] = system: NCI-H292 lung cancer cells; experiment: FDA drug screening, complete media vs cholesterol-free media without statin (TABLE 1); format: cell-based, human
# [3] = NCI-H292 cells, drug in cholesterol-free media with simvastatin 0.04 μM
# [4] = NCI-H292 cells, drug in complete media
# [5] = complete media vs cholesterol-free media + simvastatin (0.04 μM), […]
# [6] = NCI-H292 cells, cholesterol-free media without statin, FDA drug library screen
# [7] = NCI-H292 cells, FDA drug library screen, cholesterol-free media with simvastatin 0.04 μM
# [8] = NCI-H292 cells, FDA drug library screen, complete media
# [9] = complete media vs cholesterol-free media + simvastatin (0.04 μM), >0 enhanced anti-cancer activity, about 0 neutral, <0 antagonist
# [10] = NCI-H292 cells, complete media, FDA drug library screen
# [11] = complete vs cholesterol-free media, >0 enhanced anti-cancer activity, about 0 neutral, <0 antagonist
# [12] = Complete minus Cholesterol-free, greater than 0 enhanced anti-cancer activity, about 0 neutral, below 0 antagonist
# [13] = NCI-H292 cells, FDA drug library screen, cholesterol-free media without statin
# [14] = NCI-H292 cells, FDA library drug in cholesterol-free media with simvastatin 0.04 μM
# [15] = NCI-H292 cells, FDA library drug in complete media
# [16] = Complete minus Cholesterol-free, […]
# [17] = NCI-H292 cells, cholesterol-free media without statin
# [18] = complete vs cholesterol-free media, greater than 0 enhanced anti-cancer activity, about 0 neutral, below 0 antagonists
# [19] = NCI-H292 cells, cholesterol-free media with simvastatin 0.04 μM, FDA drug library screen (TABLE 2)
# [20] = NCI-H292 cells, complete media, FDA drug library screen (TABLE 2)
# [21] = complete media minus cholesterol-free media + simvastatin (0.04 μM), >0 enhanced anti-cancer activity, about 0 neutral, <0 antagonist
smiles,measurement,setting,value
Cc1ncc(COP(=O)(O)O)c(C)c1O [4-Deoxypyridoxine 5′-phosphate],Cholesterol-free media + simvastatin (0.04 μM),[1]; [3],1.284
same,Complete Media,[1]; [4],1.065
same,Difference,[1]; [5],−0.22
same,Cholesterol-free,[2]; [6],0.7389
same,Difference,"[2]; complete vs cholesterol-free media, […]",0.41
Cc1cc(=O)oc2cc(O)ccc12 [4-Methylumbelliferone],Cholesterol-free media + simvastatin (0.04 μM),[1]; [7],1.129
same,Complete Media,[1]; [8],1.057
same,Difference,[1]; [9],−0.07
same,Cholesterol-free,[2]; [6],0.6739
same,Complete,[2]; [10],1.119
same,Difference,[2]; [11],0.45
O=C(O)CCCc1ccccc1 [4-Phenylbutyric acid],Cholesterol-free media + simvastatin (0.04 μM),[1]; [3],1.251
same,Complete Media,[1]; [4],1.056
same,Difference,[1]; [9],−0.19
same,Difference,[2]; [12],−0.13
same,Cholesterol-free,[2]; [13],1.208
same,Complete,[2]; [8],1.079
CC(=O)c1ccc(O)c(C(=O)O)c1 [5-Acetylsalicylic acid],Cholesterol-free media + simvastatin (0.04 μM),[1]; [14],1.188
same,Complete Media,[1]; [15],0.8198
same,Difference,[1]; [9],−0.37
same,Cholesterol-free,[2]; [6],0.912
same,Complete,[2]; [10],1.045
same,Difference,[2]; [11],0.13
Cl.NCC(=O)CCC(=O)O [5-Aminolevulinic acid (hydrochloride)],Cholesterol-free media + simvastatin (0.04 μM),[1]; [7],1.091
same,Complete Media,[1]; [8],1.01
same,Difference,[1]; [5],−0.08
same,Difference,[2]; [16],−0.75
same,Cholesterol-free,[2]; NCI-H292 cells in cholesterol-free media without statin,1.604
same,Complete,[2]; NCI-H292 cells in complete media,0.8558
Nc1ccc(O)c(C(=O)O)c1 [5-Aminosalicylic Acid],Cholesterol-free media + simvastatin (0.04 μM),[1]; [3],1.224
same,Complete Media,[1]; [4],1.016
same,Difference,[1]; [9],−0.21
same,Cholesterol-free,[2]; [17],1.21
same,Complete,"[2]; NCI-H292 cells, complete media",0.8775
same,Difference,[2]; [18],−0.33
Nc1ncn([C@@H]2O[C@H](CO)[C@@H](O)[C@H]2O)c(=O)n1 [5-Azacytidine],Cholesterol-free media + simvastatin (0.04 μM),[1]; [19],0.9383
same,Complete Media,[1]; [20],0.8858
same,Difference,[1]; [21],−0.05
same,Cholesterol-free,[2]; [17],1.157
same,Complete,"[2]; NCI-H292 cells, complete media",0.8064
same,Difference,[2]; [18],−0.35
O=c1[nH]cc(F)c(=O)[nH]1 [5-Fluorouracil],Cholesterol-free media + simvastatin (0.04 μM),[1]; [14],0.7934
same,Complete Media,[1]; [15],0.5204
same,Difference,[1]; [9],−0.27
same,Difference,[2]; [12],−0.13
same,Cholesterol-free,[2]; [13],0.4728
same,Complete,[2]; [8],0.3401
N[C@@H](Cc1c[nH]c2ccc(O)cc12)C(=O)O [5-Hydroxytryptophan],Cholesterol-free media + simvastatin (0.04 μM),[1]; [3],1.063
same,Complete Media,[1]; [4],0.8252
same,Difference,[1]; [9],−0.24
same,Cholesterol-free,[2]; [17],1.189
same,Complete,"[2]; NCI-H292 cells, complete media",0.856
same,Difference,[2]; [18],−0.33
CC(=O)NCCCCCC(=O)O [6-Acetamidohexanoic acid],Cholesterol-free media + simvastatin (0.04 μM),[1]; [3],1.04
same,Complete Media,[1]; [4],0.7847
same,Difference,[1]; [9],−0.26
same,Cholesterol-free,[2]; [17],1.348
same,Complete,"[2]; NCI-H292 cells, complete media",1.01
same,Difference,[2]; [18],−0.34
NCCCCCC(=O)O [6-Aminocaproic acid],Cholesterol-free media + simvastatin (0.04 μM),[1],1.226
same,Complete Media,[1],1.745
same,Difference,[1],0.52
same,Cholesterol-free,[2],1.11
same,Complete,[2],1.715
same,Difference,[2],0.60
O.Sc1ncnc2nc[nH]c12 [6-Mercaptopurine hydrate],Cholesterol-free media + simvastatin (0.04 μM),[1]; [3],0.9123
same,Complete Media,[1]; [4],0.7458
same,Difference,[1]; [5],−0.17
same,Difference,[2]; [16],−0.11
same,Cholesterol-free,[2]; [13],0.3886
same,Complete,[2]; [8],0.2796
Sc1ncnc2nc[nH]c12 [6-Mercaptopurine],Cholesterol-free media + simvastatin (0.04 μM),[1]; [7],1.121
same,Complete Media,[1]; [8],0.9807
same,Difference,[1]; [9],−0.14
same,Difference,"[2]; Complete minus Cholesterol-free, >0 enhanced anti-cancer activity, about 0 neutral, <0 antagonist",−0.28
same,Cholesterol-free,[2]; [17],0.7087
same,Complete,"[2]; NCI-H292 cells, complete media",0.4285
Nc1nc2nc[nH]c2c(=S)[nH]1 [6-Thioguanine],Cholesterol-free media + simvastatin (0.04 μM),[1]; [19],0.7013
same,Complete Media,[1]; [20],0.7052
same,Difference,[1]; [21],0.00
same,Cholesterol-free,[2]; [17],0.7053
same,Complete,"[2]; NCI-H292 cells, complete media",0.3153
same,Difference,[2]; [18],−0.39
